Results reported in patent US7927849B2, “Laccase enzyme and use thereof” (AB Enzymes OY, priority 2004, dated 2011).
“And” between values parts separate entries of the source, which are not always exact repeats. Equal values may be shown once. Read-outs that look alike come from different tables or passages of the source. One block for each molecule: values may come before it.

Key:
[1] = biological target: T1, Melanocarpus albomyces laccase MaL (Melanocarpus albomyces, UniProt Q70KY3); assay: Kinetic parameters of Melanocarpus albomyces laccase MaL (comparison); assay type: biochemical
T1 sequence (Q70KY3 51-609): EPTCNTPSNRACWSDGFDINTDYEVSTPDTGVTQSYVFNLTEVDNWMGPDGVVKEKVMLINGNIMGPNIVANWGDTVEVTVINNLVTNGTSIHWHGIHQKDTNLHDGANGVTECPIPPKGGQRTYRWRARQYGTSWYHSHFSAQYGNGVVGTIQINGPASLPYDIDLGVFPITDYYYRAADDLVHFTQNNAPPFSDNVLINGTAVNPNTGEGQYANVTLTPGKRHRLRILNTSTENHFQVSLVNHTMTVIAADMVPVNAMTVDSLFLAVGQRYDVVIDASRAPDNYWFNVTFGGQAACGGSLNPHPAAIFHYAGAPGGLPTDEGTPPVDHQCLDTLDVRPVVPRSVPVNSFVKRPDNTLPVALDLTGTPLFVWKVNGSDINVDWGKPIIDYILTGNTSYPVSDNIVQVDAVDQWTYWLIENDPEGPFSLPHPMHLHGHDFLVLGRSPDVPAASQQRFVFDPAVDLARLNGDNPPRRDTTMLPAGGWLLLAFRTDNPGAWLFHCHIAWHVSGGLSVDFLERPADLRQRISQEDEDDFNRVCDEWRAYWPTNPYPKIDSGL
Method: (§1) On syringaldazin and DMP 40 mM MES buffer, pH 6 and 25 mM succinate buffer. All activity assays were carried out at 25° C. Kinetic parameters were estimated by a nonlinear regression curve fit. The values were compared to those of Melanocarpus albomyces MaL, laccase.

[2] = biological target: T2, Thielavia arenaria ALKO4197 laccase TaLcc1, recombinant (rTaLcc1, expressed in Trichoderma reesei), SEQ ID NO: 12 (Canariomyces arenarius, UniProt F6N9E7); assay type: biochemical
T2 construct: predicted mature residues 22-604; no tag stated
T2 sequence (F6N9E7 with tags, fused parts or gaps): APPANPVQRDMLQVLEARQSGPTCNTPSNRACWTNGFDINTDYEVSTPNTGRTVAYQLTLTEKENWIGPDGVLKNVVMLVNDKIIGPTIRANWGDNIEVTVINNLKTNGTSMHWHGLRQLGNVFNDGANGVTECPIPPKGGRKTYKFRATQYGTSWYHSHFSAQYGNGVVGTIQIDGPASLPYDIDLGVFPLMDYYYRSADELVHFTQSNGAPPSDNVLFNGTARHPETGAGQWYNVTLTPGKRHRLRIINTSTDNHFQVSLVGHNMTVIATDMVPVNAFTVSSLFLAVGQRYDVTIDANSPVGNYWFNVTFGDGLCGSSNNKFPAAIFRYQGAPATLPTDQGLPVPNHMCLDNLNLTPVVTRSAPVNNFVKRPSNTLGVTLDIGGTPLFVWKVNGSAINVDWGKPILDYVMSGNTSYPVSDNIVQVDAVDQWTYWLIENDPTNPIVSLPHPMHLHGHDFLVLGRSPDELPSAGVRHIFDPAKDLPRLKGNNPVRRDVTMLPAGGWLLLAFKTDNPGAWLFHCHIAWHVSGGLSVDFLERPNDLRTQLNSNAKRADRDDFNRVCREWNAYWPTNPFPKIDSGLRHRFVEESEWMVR
Method: as §1

[3] = tested on: Thielavia wild type laccase (wt TaLcc1); conditions: pH 4.5
[4] = tested on: recombinant Thielavia arenaria TaLcc1 laccase (rTaLcc1); assay type: biochemical
Method: The inhibition effect of different compounds on the activity of the recombinant TaLcc1 laccase was determined as described in Example 2.

[5] = biological target: T3, Thielavia arenaria ALKO4197 laccase TaLcc1, wild type (wt TaLcc1), SEQ ID NO: 12 (Canariomyces arenarius, UniProt F6N9E7); assay: biochemical; conditions: pH 4.5, read-out: Inhibition (%) of laccase
T3 construct: predicted mature residues 22-604

[6] = Specific activity on syringaldazine; assay type: biochemical; conditions: 25 mM MES buffer, pH 5.5
Method: (§2) Specific activities of the purified Thielavia laccase were determined towards different laccase substrates.

Specific activity on DMP = assay type: biochemical; conditions: 25 mM MES buffer, pH 5.5
Method: as §2

[7] = Specific activity on guaiacol; assay type: biochemical; conditions: 25 mM MES buffer, pH 5.5
Method: as §2

[8] = Isoelectric focusing (pI); assay type: physicochemical; conditions: pH range 3-9, ABTS staining
Method: Molecular weight of the Thielavia arenaria laccase (wt TaLcc1) was determined on SDS-PAGE according to Laemmli (1970). The gels used in the SDS-PAGE analysis were ready-made 12% Tris HCl gels (BioRad). Protein bands were visualized by staining with Coomassie Brilliant Blue (R 350; Pharmacia) and compared with molecular weight markers (Prestained Protein Marker Broad Range #7708S; New England BioLabs, Beverly, Mass.). The molecular weight of the Thielavia areanaria laccase was approximately 80 kDa. The isoelectric point of the laccase was determined with isoelectric focusing within the pH range of 3-9 (Pharmalyte IEF, Pharmacia) on a LKB 2117 Multiphor II Electrophoresis System (LKB Pharmacia, Bromma, Sweden) according to the manufacturer's instructions.
The purified recombinant Thielavia arenaria TaLcc1 was characterized in terms of pH optimum, thermal stability, and pI as described in Example 2. The molecular weight was determined by MALDI-TOF mass spectrometry on a Ultraflex™ time-of-flight instrument (BrukerDaltonics, Germany) as previously described (Palonen et al., 2003). The redox potential of TaLcc1 was also determined with a combined Pt-AgCl/KCl microelectrode at pH 5.0 according to Sigoillot et al (2004)

[9] = Specific activity on ABTS; assay type: biochemical; conditions: 25 mM succinate buffer pH 4.5, 25° C.
Method: The activity assay was carried out in accordance with the method developed by Niku-Paavola et al. (1988). The sample was diluted with 0.025 M succinate buffer, pH 4.5. […] The activity is expressed as nano katals.
as §2

[10] = ABTS, 25 mM succinate buffer, pH 4.5, 25° C.
[11] = syringaldazin and DMP, 40 mM MES buffer, pH 6 and 25 mM succinate buffer, 25° C.

Molecule: CCn1c(=NN=c2sc3cc(S(=O)(=O)O)ccc3n2CC)sc2cc(S(=O)(=O)O)ccc21 [ABTS, 2,2′azinobis-3-ethylbenzthiazole-6-sulphonate]
kcat ([1]; pH 4.5): 78.17 s⁻¹
Km [2, 10]: 75 µM
kcat [2, 10]: 68.83 s⁻¹

Molecule: COc1cccc(OC)c1O [DMP, 2,6-dimethoxy phenol]
kcat [1, 11]: 69.33 s⁻¹
kcat [2, 11]: 67.17 s⁻¹

Molecule: [Cl-].[Na+] [NaCl]
Inhibition(%) wt TaLcc1 [3]: 42% and 35%

kcat [1, 11]: 78.5 s⁻¹
Molecule: COc1cc(/C=N/N=C/c2cc(OC)c(O)c(OC)c2)cc(OC)c1O [Syringaldazin, syringaldazine]

Molecule: O=C(O)CN(CCN(CC(=O)O)CC(=O)O)CC(=O)O [EDTA]
Inhibition (%) of laccase rTaLcc1 [4]: 5%
inhibition at 10000 µM [5]: 0%
Inhibition(%) wt TaLcc1 [3]: 0%

B1: wt TaLcc1: Wild type laccase purified from Thielavia arenaria ALKO4197 culture supernatant (protein)
chain: MKSWAAAVALMVGILSPHAAAAPPANPVQRDMLQVLEARQSGPTCNTPSNRACWTNGFDINTDYEVSTPNTGRTVAYQLTLTEKENWIGPDGVLKNVVMLVNDKIIGPTIRANWGDNIEVTVINNLKTNGTSMHWHGLRQLGNVFNDGANGVTECPIPPKGGRKTYKFRATQYGTSWYHSHFSAQYGNGVVGTIQIDGPASLPYDIDLGVFPLMDYYYRSADELVHFTQSNGAPPSDNVLFNGTARHPETGAGQWYNVTLTPGKRHRLRIINTSTDNHFQVSLVGHNMTVIATDMVPVNAFTVSSLFLAVGQRYDVTIDANSPVGNYWFNVTFGDGLCGSSNNKFPAAIFRYQGAPATLPTDQGLPVPNHMCLDNLNLTPVVTRSAPVNNFVKRPSNTLGVTLDIGGTPLFVWKVNGSAINVDWGKPILDYVMSGNTSYPVSDNIVQVDAVDQWTYWLIENDPTNPIVSLPHPMHLHGHDFLVLGRSPDELPSAGVRHIFDPAKDLPRLKGNNPVRRDVTMLPAGGWLLLAFKTDNPGAWLFHCHIAWHVSGGLSVDFLERPNDLRTQLNSNAKRADRDDFNRVCREWNAYWPTNPFPKIDSGLRHRFVEESEWMVR
modifications: Thielavia arenaria ALKO4197; (1)..(617) Deduced amino acid sequence of Thielavia arenaria ALKO4197 laccase 1 (Ta Lcc1)
notes: Wild type laccase purified from Thielavia arenaria ALKO4197 culture supernatant
Specific activity on syringaldazine [6]: 490 nkat/mg
Specific activity on DMP (Specific activity on DMP): 260 nkat/mg
Specific activity on guaiacol [7]: 63 nkat/mg
pI [8]: 5.5-6.9
Specific activity on ABTS [9]: 1020 nkat/mg
